Experimental data from PubChem BioAssay (NCI).
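Five concentrations, 48 hours, 96-well plates. Abbreviation: GI50, concentration required for 50% inhibition of growth. TGI denotes the concentration required for complete inhibition of growth.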

Key:
Experiment in all cases: NCI anticancer screen, dose series, 48 h
[1] = test system: A549 NSCLC
[2] = test system: UACC-62 melanoma
[3] = test system: HT29 colon
[4] = test system: SK-OV-3 ovarian
[5] = test system: CCRF-CEM leukemia
[6] = test system: NCI-H522 lung
[7] = test system: SK-MEL-5 melanoma
[8] = test system: HCC-2998 colon
[9] = test system: UO-31 renal
[10] = test system: NCI/ADR-RES ovarian

SMILES	TGI [1]	TGI [2]	TGI [3]	TGI [4]	TGI [5]	TGI [6]	TGI [7]	TGI [8]	TGI [9]	TGI [10]	GI50 [1]	GI50 [2]	GI50 [3]	GI50 [4]	GI50 [5]	GI50 [10]	GI50 [7]	GI50 [8]	GI50 [9]
c1ccc2c(c1)SP1Sc3ccccc3P21 (configuration not stated)	> 100 µM	> 100 µM	> 100 µM	> 100 µM	> 100 µM	> 100 µM	> 100 µM	> 100 µM	> 100 µM	> 100 µM									
CC(=O)OC1CC(OC2C(O)CC(OC3C(O)CC(OC4CCC5(C)C(CCC6C5CCC5(C)C(C7=CC(=O)OC7)CCC65O)C4)OC3C)OC2C)OC(C)C1OC1OC(CO)C(O)C(O)C1O (configuration not stated)	0.0221 µM	0.334 µM	0.171 µM	0.186 µM	> 100 µM	0.0291 µM	0.107 µM	0.29 µM	0.13 µM	0.0581 µM									
O=C1C(c2c(O)[nH]c3ccc(Cl)cc23)=Nc2ccccc21	20.7 µM	> 91.3 µM	> 100 µM	11.2 µM	> 100 µM	> 100 µM	17.7 µM	> 26.8 µM	2.25 µM	> 100 µM									
COCCNCc1ccc(-c2cc3nccc(Oc4ccc(NC(=O)C5(C(=O)Nc6ccc(F)cc6)CC5)cc4F)c3s2)nc1	4.15 µM	4.66 µM	2.89 µM	3.78 µM	7.06 µM					4.25 µM	1.71 µM	1.89 µM	0.912 µM	1.93 µM	2.55 µM	1.74 µM			
COC(=O)c1sc2c(c1C(=O)OC)C(=NC(C)(C)C)SC2=NC(C)(C)C	41.8 µM	33.2 µM	37.6 µM	55.7 µM	33.5 µM	37.5 µM	29.5 µM	28.3 µM	2.43 µM	42.7 µM									
COc1cc(NCCC(=O)O)c2ncccc2c1	> 100 µM	> 100 µM	> 100 µM		> 100 µM	> 100 µM	> 100 µM		> 100 µM	> 100 µM									
Cc1ccc(C(C)C)c(OCC(=O)N/N=C/c2c[nH]c3ccc(Br)cc23)c1	12.5 µM	8.92 µM	4.78 µM	12.7 µM	7 µM	8.17 µM	4.43 µM		13.7 µM	6.6 µM									
Clc1cc(OCc2nn3c(Cc4ccccc4)nnc3s2)c(Cl)cc1OCc1nn2c(Cc3ccccc3)nnc2s1	> 100 µM	> 100 µM	> 100 µM	82.1 µM	> 100 µM	> 100 µM	> 100 µM	> 100 µM	> 100 µM	> 100 µM									
CN(C)c1cccc(OC(=O)NCCCl)c1	> 100 µM	> 100 µM	> 100 µM	> 100 µM	> 100 µM	> 100 µM	> 100 µM	> 100 µM	> 100 µM	> 100 µM					94.6 µM				
O=C(Sc1n[nH]c(=O)[nH]c1=O)c1cccc2nc3ccccc3nc12	50.4 µM	> 100 µM	61.9 µM	> 100 µM	> 100 µM		14.5 µM	> 100 µM		> 100 µM									
Cc1cccc2c1Sc1ccccc1C2NC(=O)CN(C)C (configuration not stated)	> 100 µM	> 100 µM	> 100 µM	> 100 µM	> 100 µM		> 100 µM	> 100 µM	> 100 µM										
Nc1ccc(Cn2ccc3c4c(N)nc(N)nc4ccc32)cc1	15.2 µM	1.5 µM	2.18 µM	25.4 µM	2.71 µM	3.72 µM	8.24 µM	3 µM	19 µM	> 100 µM									
Cc1ccc(Nc2nc(=O)c3c([nH]c4ccccc43)s2)cc1	25.1 µM	21 µM	23.2 µM	> 100 µM	53.3 µM	32.4 µM	20.8 µM		7.32 µM	29.9 µM									
c1ccc2c(c1)SCCc1cn[nH]c1-2	> 100 µM	> 100 µM	> 100 µM	> 100 µM	> 100 µM	> 100 µM	> 100 µM	> 100 µM	> 100 µM	> 100 µM									
CO/C=C1\OC(=O)C=C1OC	> 100 µM	> 100 µM	> 100 µM	> 100 µM	> 100 µM	> 100 µM	> 100 µM	> 100 µM	> 100 µM	> 100 µM									
NNC(=O)c1cc([N+](=O)[O-])ccc1NC(=O)C12CC3CC(CC(C3)C1)C2	51.7 µM	28 µM	> 100 µM	42.4 µM	24.9 µM	15.1 µM	> 100 µM	83.4 µM	31.5 µM	49.2 µM									
c1csc(-c2ccc(CNc3c4ccccc4nc4ccccc34)cc2)c1		27 µM		29.8 µM	3.91 µM		3.01 µM	3.01 µM	2.57 µM			6.74 µM		11 µM	1.28 µM		1.63 µM	1.53 µM	1.19 µM
